Values quoted from earlier work in PMC2965246 (Nucleic Acids Research, 2010).

Test system: GRPR
Conditions: reported value

- binding affinity to the GRPR: 79 nM
Substance: bombesin [BBN]
